Results on 1 compound are retold here after publication PMC5703966, “Systemic clearance and brain distribution of carbazole-based cyanine compounds as Alzheimer’s disease drug candidates” (Scientific Reports, 2017).

Each structure is given as a SMILES string.

Series [1] in a line: Hepatocyte stability. It counts as in vitro ADME. The note with it: ICR/CD-1, hepatocytes (cryopreserved, suspension); mouse, 1 μM input, positive controls; read-out: Hepatocytes Clint, app.
Series [2] concerns the target T1, CYP1A2 (Homo sapiens, UniProt P05177).
T1 sequence (P05177 1-516): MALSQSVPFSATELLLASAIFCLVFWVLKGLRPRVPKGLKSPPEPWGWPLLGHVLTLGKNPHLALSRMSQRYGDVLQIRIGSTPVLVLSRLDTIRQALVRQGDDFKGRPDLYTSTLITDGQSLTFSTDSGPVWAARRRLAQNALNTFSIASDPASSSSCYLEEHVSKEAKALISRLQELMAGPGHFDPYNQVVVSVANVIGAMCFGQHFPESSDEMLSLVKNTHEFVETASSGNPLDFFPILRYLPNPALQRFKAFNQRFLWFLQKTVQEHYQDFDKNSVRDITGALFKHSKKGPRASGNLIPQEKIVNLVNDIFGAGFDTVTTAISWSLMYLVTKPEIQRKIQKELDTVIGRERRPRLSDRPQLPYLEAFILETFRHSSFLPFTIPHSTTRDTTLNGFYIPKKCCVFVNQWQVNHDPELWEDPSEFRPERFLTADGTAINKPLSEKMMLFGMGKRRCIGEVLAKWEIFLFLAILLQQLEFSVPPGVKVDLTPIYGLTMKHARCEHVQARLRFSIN
The note with it: hepatocytes.
Protocol: The samples were centrifuged at approximately 1,900 g for 10 mins before LC-MS/MS analysis.
The C YP3A4 and CYP1A2 activities in human hepatocytes were assayed by testosterone 6β-

For `CCOc1ccc(NC(C)=O)cc1` [Phenacetin, reference compound], the hepatocyte CLint at 1 μM in series [1] worked out at 33 ± 8 µL/min/1e6 cells. Further, the “phenacetin O-deethylation (CYP1A2 activity)” value in series [2] is given as 24.3 ± 3.25 pmol/min/106 cells.
